Assays:
Assay in all cases: Eurofins kinase profiling
Assay type in all cases: biochemical
[1] = target: T1, PDGFRα(D842V)(h) (Homo sapiens, UniProt P16234, D842V); settings: read-out: residual kinase activity PDGFRα(D842V)(h)
T1 construct: purchased Eurofins KinaseProfiler
Description: (§1) The kinase profiling analysis was performed at Eurofins (Poitiers, France). A total of 110 kinase assays were carried out according to Eurofins’ standard protocols. For protein kinase assays, the kinase activity was measured using Eurofins’ KinaseProfiler radiometric assay. In this assay, a panel of kinases was incubated with the test compound SJP1602 at a concentration of 1 µM, and the kinase activity was determined using radiolabeled phosphate as a substrate. Lipid and atypical kinase assays were conducted using Eurofins’ homogeneous time-resolved fluorescence assay. The same panel of kinases was incubated with SJP1602 at a concentration of 1 µM, and the activity of lipid and atypical kinases was measured using this assay.

[2] = target: T2, FGFR1(h) (Homo sapiens, UniProt P11362); settings: read-out: residual kinase activity FGFR1(h)
T2 construct: purchased Eurofins KinaseProfiler
T2 sequence (P11362 22-822): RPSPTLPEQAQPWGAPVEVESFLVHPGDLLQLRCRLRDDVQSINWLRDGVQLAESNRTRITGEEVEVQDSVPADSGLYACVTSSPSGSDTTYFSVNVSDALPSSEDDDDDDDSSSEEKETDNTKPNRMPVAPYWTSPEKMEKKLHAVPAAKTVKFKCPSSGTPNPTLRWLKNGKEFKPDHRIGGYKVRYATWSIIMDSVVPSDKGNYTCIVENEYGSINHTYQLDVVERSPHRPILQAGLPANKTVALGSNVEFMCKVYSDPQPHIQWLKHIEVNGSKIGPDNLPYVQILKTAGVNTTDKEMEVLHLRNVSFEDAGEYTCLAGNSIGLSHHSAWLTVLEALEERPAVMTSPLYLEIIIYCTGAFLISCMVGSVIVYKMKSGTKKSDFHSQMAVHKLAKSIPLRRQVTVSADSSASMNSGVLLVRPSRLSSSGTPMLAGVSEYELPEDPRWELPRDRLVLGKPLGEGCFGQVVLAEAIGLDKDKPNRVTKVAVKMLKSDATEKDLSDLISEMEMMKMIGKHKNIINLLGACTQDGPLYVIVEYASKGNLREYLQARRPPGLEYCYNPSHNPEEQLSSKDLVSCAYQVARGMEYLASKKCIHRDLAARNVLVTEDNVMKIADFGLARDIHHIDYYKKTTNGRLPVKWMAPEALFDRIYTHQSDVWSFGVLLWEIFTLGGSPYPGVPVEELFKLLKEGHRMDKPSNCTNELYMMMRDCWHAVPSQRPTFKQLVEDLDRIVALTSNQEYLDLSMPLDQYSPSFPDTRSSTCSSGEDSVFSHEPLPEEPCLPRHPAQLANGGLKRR
Description: as §1

[3] = target: T3, PKCι(h) (Homo sapiens, UniProt P41743); settings: read-out: residual kinase activity PKCι(h)
T3 construct: purchased Eurofins KinaseProfiler
T3 sequence (P41743 1-596): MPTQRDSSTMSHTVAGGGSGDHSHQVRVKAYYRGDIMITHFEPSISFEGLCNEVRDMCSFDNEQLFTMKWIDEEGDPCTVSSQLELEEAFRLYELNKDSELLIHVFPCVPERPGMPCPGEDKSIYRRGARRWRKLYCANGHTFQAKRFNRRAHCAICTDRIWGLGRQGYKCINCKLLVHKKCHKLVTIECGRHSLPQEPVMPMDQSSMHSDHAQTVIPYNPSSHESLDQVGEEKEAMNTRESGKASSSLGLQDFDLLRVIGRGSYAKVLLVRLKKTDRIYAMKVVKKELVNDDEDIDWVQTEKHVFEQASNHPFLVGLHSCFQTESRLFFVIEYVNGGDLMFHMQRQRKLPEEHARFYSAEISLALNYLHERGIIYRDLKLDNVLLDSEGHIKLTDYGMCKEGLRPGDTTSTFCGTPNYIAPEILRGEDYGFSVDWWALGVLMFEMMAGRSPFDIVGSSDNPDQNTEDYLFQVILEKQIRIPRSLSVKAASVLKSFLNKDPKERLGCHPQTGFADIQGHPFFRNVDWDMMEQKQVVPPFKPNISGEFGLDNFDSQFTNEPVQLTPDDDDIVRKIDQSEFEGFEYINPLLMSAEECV
Description: as §1

[4] = target: T4, IKKα(h) (Homo sapiens, UniProt O15111); settings: read-out: residual kinase activity IKKα(h)
T4 construct: purchased Eurofins KinaseProfiler
T4 sequence (O15111 1-745): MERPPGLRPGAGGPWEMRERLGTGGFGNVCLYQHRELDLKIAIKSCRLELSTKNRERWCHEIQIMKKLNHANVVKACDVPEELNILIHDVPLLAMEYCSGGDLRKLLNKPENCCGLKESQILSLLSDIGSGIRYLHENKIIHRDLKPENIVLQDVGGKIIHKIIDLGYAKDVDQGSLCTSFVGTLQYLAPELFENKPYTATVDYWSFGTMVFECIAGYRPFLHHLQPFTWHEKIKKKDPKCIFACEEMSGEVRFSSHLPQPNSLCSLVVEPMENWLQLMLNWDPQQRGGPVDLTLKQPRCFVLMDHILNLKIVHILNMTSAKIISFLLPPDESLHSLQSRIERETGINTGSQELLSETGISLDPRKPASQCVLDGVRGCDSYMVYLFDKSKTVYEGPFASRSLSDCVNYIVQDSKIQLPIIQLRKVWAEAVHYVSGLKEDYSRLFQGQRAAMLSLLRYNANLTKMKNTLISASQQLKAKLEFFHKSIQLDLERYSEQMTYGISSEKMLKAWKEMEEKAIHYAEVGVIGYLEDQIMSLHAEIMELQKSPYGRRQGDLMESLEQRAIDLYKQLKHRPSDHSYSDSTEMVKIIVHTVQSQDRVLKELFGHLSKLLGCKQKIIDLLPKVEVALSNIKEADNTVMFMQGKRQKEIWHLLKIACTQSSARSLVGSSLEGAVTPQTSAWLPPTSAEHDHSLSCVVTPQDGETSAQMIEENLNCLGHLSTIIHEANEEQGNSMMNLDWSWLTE
Description: as §1

[5] = target: T5, B-Raf(h) (Homo sapiens, UniProt P15056); settings: read-out: residual kinase activity B-Raf(h)
T5 construct: purchased Eurofins KinaseProfiler
T5 sequence (P15056 whole entry): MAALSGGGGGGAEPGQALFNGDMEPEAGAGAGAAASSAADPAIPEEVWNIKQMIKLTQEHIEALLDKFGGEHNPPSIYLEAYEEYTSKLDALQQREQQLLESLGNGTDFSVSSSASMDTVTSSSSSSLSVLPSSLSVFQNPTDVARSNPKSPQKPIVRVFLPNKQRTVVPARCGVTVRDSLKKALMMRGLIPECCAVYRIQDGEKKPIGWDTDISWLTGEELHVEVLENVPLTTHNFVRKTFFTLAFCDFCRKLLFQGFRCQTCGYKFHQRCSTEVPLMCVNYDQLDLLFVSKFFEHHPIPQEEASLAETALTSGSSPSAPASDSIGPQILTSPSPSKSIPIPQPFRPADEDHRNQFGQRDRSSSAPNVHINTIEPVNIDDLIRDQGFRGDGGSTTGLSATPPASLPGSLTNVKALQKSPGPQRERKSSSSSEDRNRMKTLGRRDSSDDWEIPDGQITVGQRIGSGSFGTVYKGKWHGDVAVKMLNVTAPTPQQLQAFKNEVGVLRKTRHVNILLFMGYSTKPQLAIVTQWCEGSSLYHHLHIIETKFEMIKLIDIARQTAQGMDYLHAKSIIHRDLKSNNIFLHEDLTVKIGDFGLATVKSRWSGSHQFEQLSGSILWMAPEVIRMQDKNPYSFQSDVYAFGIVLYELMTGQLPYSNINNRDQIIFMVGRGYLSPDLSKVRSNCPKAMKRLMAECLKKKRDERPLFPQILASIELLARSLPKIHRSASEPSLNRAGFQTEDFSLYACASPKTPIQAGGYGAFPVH
Description: as §1

[6] = target: T6, ErbB4(h) (Homo sapiens, UniProt Q15303); settings: read-out: residual kinase activity ErbB4(h)
T6 construct: purchased Eurofins KinaseProfiler
T6 sequence (Q15303 26-1308): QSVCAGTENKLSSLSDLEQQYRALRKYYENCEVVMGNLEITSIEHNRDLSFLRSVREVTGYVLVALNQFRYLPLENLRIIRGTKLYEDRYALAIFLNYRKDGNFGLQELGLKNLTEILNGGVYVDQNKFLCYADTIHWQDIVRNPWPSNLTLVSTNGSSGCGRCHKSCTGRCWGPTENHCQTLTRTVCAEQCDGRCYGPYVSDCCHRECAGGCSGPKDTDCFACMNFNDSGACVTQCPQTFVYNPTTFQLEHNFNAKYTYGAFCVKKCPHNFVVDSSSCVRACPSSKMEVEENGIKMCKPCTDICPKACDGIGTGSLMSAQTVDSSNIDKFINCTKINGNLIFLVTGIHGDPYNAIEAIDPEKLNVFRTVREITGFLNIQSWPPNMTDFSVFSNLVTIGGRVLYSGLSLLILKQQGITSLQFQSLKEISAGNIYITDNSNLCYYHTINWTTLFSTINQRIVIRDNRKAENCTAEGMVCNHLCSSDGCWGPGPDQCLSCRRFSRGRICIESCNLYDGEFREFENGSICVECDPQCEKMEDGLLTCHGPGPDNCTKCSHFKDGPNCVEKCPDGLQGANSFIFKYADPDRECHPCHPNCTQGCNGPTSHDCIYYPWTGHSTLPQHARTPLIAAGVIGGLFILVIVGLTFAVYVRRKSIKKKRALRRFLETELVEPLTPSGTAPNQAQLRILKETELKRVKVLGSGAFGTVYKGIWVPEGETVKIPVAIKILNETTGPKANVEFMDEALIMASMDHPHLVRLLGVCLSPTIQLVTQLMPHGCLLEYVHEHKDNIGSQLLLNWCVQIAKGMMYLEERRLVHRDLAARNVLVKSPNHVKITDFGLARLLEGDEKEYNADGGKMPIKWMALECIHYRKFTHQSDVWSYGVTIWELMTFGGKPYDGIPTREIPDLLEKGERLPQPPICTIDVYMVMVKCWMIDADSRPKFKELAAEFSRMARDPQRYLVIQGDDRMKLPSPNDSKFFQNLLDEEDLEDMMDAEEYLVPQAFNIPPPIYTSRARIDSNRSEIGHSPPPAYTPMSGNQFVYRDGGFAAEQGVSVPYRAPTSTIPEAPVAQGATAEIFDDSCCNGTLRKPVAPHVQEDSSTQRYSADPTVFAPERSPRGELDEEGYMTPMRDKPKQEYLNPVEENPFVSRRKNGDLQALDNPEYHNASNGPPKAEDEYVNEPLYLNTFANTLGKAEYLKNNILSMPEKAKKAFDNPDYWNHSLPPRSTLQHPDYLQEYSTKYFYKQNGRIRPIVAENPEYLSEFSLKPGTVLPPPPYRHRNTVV
Description: as §1

[7] = target: T7, ROCK-I(h) (Homo sapiens, UniProt Q13464); settings: read-out: residual kinase activity ROCK-I(h)
T7 construct: purchased Eurofins KinaseProfiler
Description: as §1

[8] = target: T8, PKD2(h) (Homo sapiens, UniProt Q9BZL6); settings: read-out: residual kinase activity PKD2(h)
T8 construct: purchased Eurofins KinaseProfiler
T8 sequence (Q9BZL6 1-878): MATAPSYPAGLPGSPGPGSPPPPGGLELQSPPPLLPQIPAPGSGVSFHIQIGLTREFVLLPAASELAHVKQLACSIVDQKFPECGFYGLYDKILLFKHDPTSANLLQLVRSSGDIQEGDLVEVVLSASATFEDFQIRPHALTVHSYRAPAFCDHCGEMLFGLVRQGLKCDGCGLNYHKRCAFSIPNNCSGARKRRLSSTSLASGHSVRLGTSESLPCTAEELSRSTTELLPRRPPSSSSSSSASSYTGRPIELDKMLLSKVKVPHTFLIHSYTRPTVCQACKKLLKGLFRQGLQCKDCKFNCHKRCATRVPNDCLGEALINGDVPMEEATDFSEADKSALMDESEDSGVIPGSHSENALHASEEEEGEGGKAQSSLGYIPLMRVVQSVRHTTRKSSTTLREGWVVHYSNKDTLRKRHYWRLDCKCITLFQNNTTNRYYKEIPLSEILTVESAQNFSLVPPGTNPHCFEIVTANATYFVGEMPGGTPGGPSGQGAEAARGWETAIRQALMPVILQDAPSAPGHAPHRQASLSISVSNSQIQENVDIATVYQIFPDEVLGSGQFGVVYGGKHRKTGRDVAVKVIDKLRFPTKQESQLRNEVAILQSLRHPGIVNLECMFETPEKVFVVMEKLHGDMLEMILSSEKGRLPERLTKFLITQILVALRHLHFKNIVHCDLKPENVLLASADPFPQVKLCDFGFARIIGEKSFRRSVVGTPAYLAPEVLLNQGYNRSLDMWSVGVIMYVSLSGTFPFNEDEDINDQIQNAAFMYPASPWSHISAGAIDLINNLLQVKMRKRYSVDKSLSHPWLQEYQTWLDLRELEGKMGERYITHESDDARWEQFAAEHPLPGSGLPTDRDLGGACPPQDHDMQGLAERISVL
Description: as §1

T1 sequence (P16234 24-1089 D842V): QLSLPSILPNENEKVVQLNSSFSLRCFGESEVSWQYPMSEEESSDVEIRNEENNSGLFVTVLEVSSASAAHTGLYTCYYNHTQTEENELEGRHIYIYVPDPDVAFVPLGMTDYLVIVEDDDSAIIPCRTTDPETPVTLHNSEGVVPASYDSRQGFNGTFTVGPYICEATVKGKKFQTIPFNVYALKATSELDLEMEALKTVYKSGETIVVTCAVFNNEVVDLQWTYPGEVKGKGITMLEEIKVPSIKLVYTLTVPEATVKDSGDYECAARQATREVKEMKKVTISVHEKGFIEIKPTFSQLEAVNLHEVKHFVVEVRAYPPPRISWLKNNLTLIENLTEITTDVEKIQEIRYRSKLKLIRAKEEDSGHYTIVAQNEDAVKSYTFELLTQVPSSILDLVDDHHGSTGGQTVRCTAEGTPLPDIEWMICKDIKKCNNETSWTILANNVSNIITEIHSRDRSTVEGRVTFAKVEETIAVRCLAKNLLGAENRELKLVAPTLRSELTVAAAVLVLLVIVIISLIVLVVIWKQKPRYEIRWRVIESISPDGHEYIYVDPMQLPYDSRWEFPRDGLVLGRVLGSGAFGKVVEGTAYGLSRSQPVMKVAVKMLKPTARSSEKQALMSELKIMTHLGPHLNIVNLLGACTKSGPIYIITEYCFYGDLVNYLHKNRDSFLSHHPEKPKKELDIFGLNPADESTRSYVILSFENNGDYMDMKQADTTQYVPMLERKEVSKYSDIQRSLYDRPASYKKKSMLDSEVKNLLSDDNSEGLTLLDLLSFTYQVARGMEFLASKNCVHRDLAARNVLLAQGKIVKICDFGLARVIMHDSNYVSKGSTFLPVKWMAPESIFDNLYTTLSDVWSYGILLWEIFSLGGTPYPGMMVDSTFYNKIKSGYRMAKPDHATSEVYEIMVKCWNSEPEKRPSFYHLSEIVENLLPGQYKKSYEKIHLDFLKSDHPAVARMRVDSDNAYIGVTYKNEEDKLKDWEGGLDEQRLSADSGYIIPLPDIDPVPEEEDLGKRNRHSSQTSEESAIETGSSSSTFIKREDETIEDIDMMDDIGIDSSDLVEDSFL

Row | remaining activity at 1 µM [1] [%] | remaining activity at 1 µM [2] [%] | remaining activity at 1 µM [3] [%] | remaining activity at 1 µM [4] [%] | remaining activity at 1 µM [5] [%] | remaining activity at 1 µM [6] [%] | remaining activity at 1 µM [7] [%] | remaining activity at 1 µM [8] [%] | SMILES
1 | 119 | 109 | 106 | 93 | 99 | 81 | 107 | 90 | CONC(=O)c1ccccc1Nc1cc(Nc2cc(C)nn2C(C)C)ncc1Cl [GSK2256098]
2 | 87 | 43 | 100 | 125 | 83 | 104 | 103 | 116 | CNC(=O)c1ccc(Nc2ncc(C(F)(F)F)c(NCc3nccnc3N(C)S(C)(=O)=O)n2)cc1 [VS-6063, Defactinib]

Row | SMILES | remaining activity at 1 µM [1] [%] | remaining activity at 1 µM [2] [%] | remaining activity at 1 µM [3] [%] | remaining activity at 1 µM [4] [%] | remaining activity at 1 µM [5] [%] | remaining activity at 1 µM [6] [%] | remaining activity at 1 µM [7] [%] | remaining activity at 1 µM [8] [%]
3 | CNC(=O)c1cccc(C)c1Nc1nc(Nc2ccc(N3CCN(C4C5CC6CC4CC(O)(C6)C5)CC3)cc2OC)ncc1C(F)(F)F (stereo not drawn) [SJP1602, 2-((2-((4-(4-((2s,5r)-5-hydroxyadamantan-2-yl)piperazin-1-yl)-2-methoxyphenyl)amino)-5-(trifluoromethyl)pyrimidin-4-yl)amino)-N,3-dimethylbenzamide] | 141 | 111 | 93 | 130 | 93 | 99 | 101 | 116

Source: PMC10528299, “Targeting FAK/PYK2 with SJP1602 for Anti-Tumor Activity in Triple-Negative Breast Cancer” (Current Issues in Molecular Biology, 2023)
